Data from US7700651B2, “Preparations of phospholipids and pharmaceuticals containing 5-amino salicylic acid for the treatment of inflammatory bowel disease” (The Board of Regents of the University of Texas System, priority 2006, dated 2010).

Columns and labels:
[1] = system: mice placed on 3% DSS in the drinking water to induce colitis; assay: DSS-induced colitis in mice, test formulations given in the diet; format: in vivo, C57BL/6 mice; conditions: 3% DSS for four days
Procedure: Phosal 35 SB, a soy lecithin oil containing approximately 35 wt. % phosphatidylcholine (PC), was placed in glass beaker to which 5ASA (or a 5ASA containing pharmaceutical) was added under moderate heat, about 40° C., and stirring until a 1:1 weight ratio was attained. The resulting oil-based formulation was coated with a pH-sensitive polymer, e.g., MultiSal™, or Eudragrit®-S, to form polymer encapsulated micro-spheres of the 5ASA/PC composition. These encapsulated micro-spheres are formed so that the 5ASA and PC are released only when the drug reaches the distal gut, where the pH is 7 or above and the polymer coating degrades. […]
Groups of C57BL/6 mice were exposed to different diets and their daily food consumption (grams/day) were measured over a four day period of time. […]
Now, the 5ASA:PL formulations can be compared to 5ASA in treating the colitis type disorder in mice. […] The efficacy of the treating compositions were determined by measuring colon tissue weight per length.
Groups of mice were placed on drinking water comprising saline containing 3% DSS for four days to induce a colitis type disorder and then treated with the compositions of this invention. The appearance of blood as indicated by an increased hemoglobin content in the feces was measured to determine the efficacy of 5ASA versus the 5ASA:PL formulations. […]

[2] = system: rats with colitis induced by 4% dextran sodium sulfate (DSS) in drinking water; assay: Recovery from DSS-induced colitis in rats, 5ASA 100 mg/kg b.i.d. intragastrically for 6 days; format: in vivo, Sprague Dawley male rats
Procedure: Rats were placed on drinking water containing 4% dextran sodium sulfate (DSS) for 5 days and 20 hours to induce colitis after which they were returned to normal drinking water. The animals were then intragastrically administered twice daily for 6 subsequent days with: (a) saline (DSS control); (b) 5ASA at a dose of 100 mg/kg; (c) a 1:1 wt. ratio of 5ASA and Phosal 35 SB (an oil-based formulation); or (d) a 1:2 wt. ratio of 5ASA and Phospholipon 90G (an aqueous lipidic suspension) at the same dose of 5ASA, 100 mg/kg, b.i.d. The formulations (c) and (d) are phosphatidylcholine (PC) associated 5ASA formulations, where the PC and 5ASA are associated at the molecular level. These treatments are designed to compare the efficacy of 5ASA and two different PC:5ASA formulations.
At 1, 3 and 6 days, rats were euthanized and colonic tissue, blood and fecal matter were collected for biochemical and histological analyses to assess colonic inflammation and GI bleeding. A separate group of rats were not placed on DSS and served as “normal controls.”
Referring now to FIG. 8, changes in hematocrit during the 6 day recovery period were measured from the euthanized rats. Changes in hematocrit levels represent an indirect estimate of anemia and internal (GI) bleeding among the groups over the 6 day recovery period.
Colonic inflammation and injury were assessed by measuring a number of biochemical and histological indices. First, tissue edema were assessed by measuring tissue wet weight/unit length.
Colonic myeloperoxidase (MPO) activity, a biochemical marker of neutrophil infiltration into the tissue, was measured as another marker of inflammation.
Tissue histology was scored (under blinded conditions) for signs of injury and inflammation. To assess inflammation we scored the number of inflammatory cells in the lamina propia of the colonic submucosa using a scoring system from 1 (normal) to 4 (highly inflamed).
To assess colonic mucosal injury, a histological scoring system was used, where: 0=normal mucosa; 1=surface injury; 2=injury extending into the mid glandular region; 3=injury extending into the deep glandular region; and 4=injury extending into the serosal (muscle) layer.

[3] = system: rats with colitis induced by 4% dextran sodium sulfate (DSS) in drinking water; assay: Recovery from DSS-induced colitis in rats, 5ASA 50 mg/kg BID intragastrically for 3 days; format: in vivo, Sprague Dawley male rats
Procedure: The following experiments were designed to compare the efficacy of 5ASA versus 5ASA:PC formulations in treating rats that had been subjected to colitis induced by adding 4% dextran sodium sulfate (DSS) to their drinking water for over 5 days (5 day, 20 hours) and then returned to normal drinking water. The rats were then treated with 5ASA, in this experiment at a lower dose (50 mg/kg, BID) than that previously studied, in the absence or presence to a PL component for 3 days post DSS induced colitis.
Thirty two healthy male rats used in the study. […] Group 1 were given drinking water without added DSS. Groups 2-4 received drinking water containing 4% DSS for 6 days. At day 6, Group 2 received 1 mL saline BID intra gastrically. Group 3 received 5ASA (50 mg/Kg) BID intra gastrically. Group 4 received 5ASA (50 mg/Kg):Phosal 35SB:MCT oil (1:1:0.3), referred to heretofore as 5ASA:PC BID intra gastrically, where MCT=Medium Chain Triglyceride.
At day 9, the rats were euthanized and the following were measured: (a) hematocrit, (b) fecal hemoglobin, (c) colon weight/length, (d) colon myeloperoxidase (MPO), (e) colonic surface hydrophobicity and (f) colon histology.
In this study, rats were placed on regular drinking water (Group 1) or water containing 4% DSS and then intragastrically administered: saline (Group 2); 5ASA (Group 3) at a dose of 50 mg/kg BID); or 5ASA:PC (P35SB at 1:1 wt ratio) (Group 4) for 3 days at which time the following changes were seen.

[4] = system: C57BL/6 mice; assay: Induction of colitis in mice by increasing DSS concentrations in drinking water for 4 days; format: in vivo; conditions: 0% to 4% DSS in drinking water, four days
Description: Groups of four C57BL/6 mice were exposed to differing amount of dextran sodium sulfate (DSS) in their drinking water for a four day period of time. The mice were then euthanized and colon tissue weight per length measurements for each group of mice were made.
Groups of C57BL/6 mice were exposed to differing amount of dextran sodium sulfate (DSS) in their drinking water for a four day period of time. The mice fecal hemoglobin measurements were made at the end of the four day period.

Row | Molecule | colonic inflammation as colon tissue weight per length [1] | overall colonic inflammation and tissue injury / recovery from colitis (biochemical and histological markers, conclusions) ([2]; 100 mg/kg b.i.d., 3 to 6 days post-DSS) | number of inflammatory cells in lamina propia of colonic submucosa, score 1 (normal) to 4 (highly inflamed) ([2]; 3 and 6 days, 100 mg/kg b.i.d.) | tissue edema (tissue wet weight/unit length) ([2]; 3 days post-DSS, 100 mg/kg b.i.d., vs saline-treated controls) | colonic myeloperoxidase (MPO) activity ([2]; day 3, 100 mg/kg b.i.d.) | fecal hemoglobin (fecal blood loss) ([2]; first day of the recovery period, 100 mg/kg b.i.d.) | colon MPO activity (DSS-induced inflammation) ([3]; 50 mg/kg BID, 3 days post DSS) | colon weight/length (DSS-induced mucosal edema) ([3]; 50 mg/kg BID, 3 days post DSS) | fecal hemoglobin (DSS-induced GI fecal blood loss) ([3]; 50 mg/kg BID, 3 days post DSS) | overall recovery from DSS-induced colitis and GI bleeding (conclusion) ([3]; 50 mg/kg twice daily intragastrically) | colonic inflammation or edema as colon tissue weight per length [4] | fecal hemoglobin [4]
1 | Nc1ccc(O)c(C(=O)O)c1 [5ASA, 5-amino salicylic acid] | partial reversal | significantly reduces colonic inflammation and tissue injury | reduced number of inflammatory cells | reduced by 5ASA (non significantly) | reduction | may have had a beneficial effect in reducing fecal blood loss | partially | partially reversed | partially reversed | promotes tissue recovery from DSS-induced colitis and reduces GI bleeding |  | 
2 | dextran sodium sulfate [DSS] |  |  |  |  |  |  |  |  |  |  | 3% DSS was shown to cause the greatest increase | increased fecal hemoglobin with increasing concentration
